Two compounds from paper PMC6514978, “Synthesis, Antibacterial Activities, Mode of Action and Acute Toxicity Studies of New Oxazolidinone-Fluoroquinolone Hybrids” (Molecules, 2019) can be followed below.

Converted amounts (≈) assume the structure as drawn.

Assay [1] addresses T1, E. coli DNA gyrase (Escherichia coli, UniProt P0AES4+P0AES6).
T1 construct: purchased Inspiralis Co., Ltd; host or cells: E. coli
Nature of the assay: DNA gyrase supercoiling assay. It counts as biochemical. Conditions: supercoiling of relaxed pBR322, 37 °C, 30 min. As for the experimental part: The E. coli DNA Gyrase Supercoiling Assay Kit (Inspiralis Co., Ltd.) was used to investigate the inhibition activities of hybrids OBP-4 and OBP-5 against DNA gyrase. DNA gyrase is prepared from E. coli. One unit of DNA gyrase can convert 0.5 μg of relaxed pBR322 to the supercoiled forms in 30 min. […] The reaction was terminated by adding 30 μL of STEB and 30 μL of chloroform/isoamyl alcohol (v:v, 24:1), and then the products were resolved by gel electrophoresis on 1% (w/v) agarose gel at 80 V for 2 h in the absence of ethidium bromide. The gels were stained with ethidium bromide (1 μg/mL in distilled water) for 15 min, and destained (5–10 min) in distilled water. DNA bands were visualized with UV light in Bio-Rad® Chemidoc xrs and analyzed by using Quantity One software (Version 4.6, Bio-Rad).

The target in assay [2] is T2, E. coli Topo IV (Escherichia coli, UniProt P0AFI2+P20083).
T2 construct: purchased Inspiralis Co., Ltd; host or cells: overexpressing E. coli
T2 sequence (P20083 whole entry): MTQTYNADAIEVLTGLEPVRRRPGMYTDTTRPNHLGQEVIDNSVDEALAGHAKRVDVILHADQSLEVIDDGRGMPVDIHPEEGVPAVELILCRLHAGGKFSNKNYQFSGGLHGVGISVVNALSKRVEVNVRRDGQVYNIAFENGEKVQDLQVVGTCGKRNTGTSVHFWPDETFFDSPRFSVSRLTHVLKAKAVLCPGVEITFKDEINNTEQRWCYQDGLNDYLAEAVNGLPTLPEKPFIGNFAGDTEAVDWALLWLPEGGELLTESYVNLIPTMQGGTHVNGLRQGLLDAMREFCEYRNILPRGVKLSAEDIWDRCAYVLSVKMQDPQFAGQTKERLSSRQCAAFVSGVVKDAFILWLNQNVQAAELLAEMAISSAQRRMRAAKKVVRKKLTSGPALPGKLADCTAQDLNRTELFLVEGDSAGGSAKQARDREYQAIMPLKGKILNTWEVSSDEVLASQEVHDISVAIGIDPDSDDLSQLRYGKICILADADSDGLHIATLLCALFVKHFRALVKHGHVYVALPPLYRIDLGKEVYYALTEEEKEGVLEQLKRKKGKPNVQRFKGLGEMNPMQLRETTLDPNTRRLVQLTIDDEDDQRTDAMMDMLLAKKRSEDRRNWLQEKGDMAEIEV
T2 sequence (P0AFI2 whole entry): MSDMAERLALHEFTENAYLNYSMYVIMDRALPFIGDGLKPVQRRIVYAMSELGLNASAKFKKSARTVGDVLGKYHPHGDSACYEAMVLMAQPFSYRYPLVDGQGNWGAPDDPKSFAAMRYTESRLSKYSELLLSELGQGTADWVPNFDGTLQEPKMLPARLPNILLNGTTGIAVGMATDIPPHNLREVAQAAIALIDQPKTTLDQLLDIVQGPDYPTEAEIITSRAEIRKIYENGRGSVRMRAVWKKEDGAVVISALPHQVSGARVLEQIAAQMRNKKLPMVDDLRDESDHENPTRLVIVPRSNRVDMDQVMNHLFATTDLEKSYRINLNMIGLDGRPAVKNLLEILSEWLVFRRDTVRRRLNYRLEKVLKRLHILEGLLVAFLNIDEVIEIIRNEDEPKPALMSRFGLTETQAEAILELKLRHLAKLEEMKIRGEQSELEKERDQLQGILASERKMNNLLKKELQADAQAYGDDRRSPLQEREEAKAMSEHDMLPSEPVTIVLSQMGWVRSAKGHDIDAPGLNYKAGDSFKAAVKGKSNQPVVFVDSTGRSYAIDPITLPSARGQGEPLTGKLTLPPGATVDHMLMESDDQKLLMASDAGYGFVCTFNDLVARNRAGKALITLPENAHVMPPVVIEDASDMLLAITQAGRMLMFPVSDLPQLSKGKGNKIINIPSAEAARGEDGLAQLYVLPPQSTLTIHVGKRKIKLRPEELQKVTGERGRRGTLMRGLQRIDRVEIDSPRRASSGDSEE
In words: Topo IV relaxation assay. It is filed as biochemical. The settings on record: relaxation of supercoiled pBR322, 37 °C, 30 min. As for the experimental part:
The E. coli Topo IV Relaxation Assay Kit (Inspiralis Co., Ltd.) was used to evaluate the effects of hybrids OBP-4 and OBP-5 against topo IV. Topo IV was prepared by the overexpressing E. coli. One unit of topo IV will relax 0.4 μg of supercoiled pBR322. In the assay, the final reaction mixtures (30 μL) consisted of 0.4 μg supercoiled pBR322 and one unit DNA Topo IV with or without compounds in assay buffer with 40 mM Hepes-KOH (pH 7.6), 100 mM potassium glutamate, 10 mM magnesium acetate, 10 mM DTT, 1 mM ATP and 50 μg/mL albumin, and then was incubated at 37 °C for 30 min. The reaction was terminated by adding 30 μL of STEB and 30 μL of chloroform/isoamyl alcohol (v:v, 24:1) after incubation for 30 min. Then, the reaction products were processed as described in a DNA gyrase supercoiling assay.

Assay [3] deals with other resistant organisms in the test. Nature of the assay: MIC summary, resistant organisms other than MRSA and MRSE. It is filed as cell-based. The settings on record: resistant strains other than MRSA and MRSE; read-out: MICs values against other resistant organisms. From the text:
6 standard strains and 3 clinical isolates were used to the preliminary evaluation of in vitro antibacterial activities of oxazolidinone-fluoroquinolone hybrids. For the further evaluation of hybrids OBP-4 and OBP-5, 263 clinical isolates including S. aureus (46), S. haemolyticus(32), S. epidermidis (10), E. faecalis (72), E. faecium (47), S. pneumoniae (13), H. parasuis (34), S. suis (9), and 8 resistant strains including MRSA, MRSE, CIP-resistant S. aureus and S. haemolyticus, VAN and quinolone-resistant S. pneumoniae, LZD-resistant E. faecalis, LZD/VAN and quinolone-resistant E. faecium were collected and tested.
Susceptibility testing of oxazolidinone-fluoroquinolone hybrids against various bacteria was performed by the broth microdilution method as outlined by the Clinical and Laboratory Standards Institute (CLSI). Three types of media, including cation-adjusted Mueller Hinton broth, Haemophilus Test Medium and cation-adjusted Mueller Hinton broth that contained 3%–5% lysed horse blood, were used to culture the corresponding bacteria. All compounds including comparator drugs were dissolved in an appropriate solvent at a concentration of 2.048 mg/mL and then serially diluted two-fold to provide the required concentrations. A final inoculum of 5 × 10^5 CFU/mL was used and plates were read after incubation for 16–24 h at 35 °C. […]

T1 sequence (P0AES4 whole entry, one chain of several): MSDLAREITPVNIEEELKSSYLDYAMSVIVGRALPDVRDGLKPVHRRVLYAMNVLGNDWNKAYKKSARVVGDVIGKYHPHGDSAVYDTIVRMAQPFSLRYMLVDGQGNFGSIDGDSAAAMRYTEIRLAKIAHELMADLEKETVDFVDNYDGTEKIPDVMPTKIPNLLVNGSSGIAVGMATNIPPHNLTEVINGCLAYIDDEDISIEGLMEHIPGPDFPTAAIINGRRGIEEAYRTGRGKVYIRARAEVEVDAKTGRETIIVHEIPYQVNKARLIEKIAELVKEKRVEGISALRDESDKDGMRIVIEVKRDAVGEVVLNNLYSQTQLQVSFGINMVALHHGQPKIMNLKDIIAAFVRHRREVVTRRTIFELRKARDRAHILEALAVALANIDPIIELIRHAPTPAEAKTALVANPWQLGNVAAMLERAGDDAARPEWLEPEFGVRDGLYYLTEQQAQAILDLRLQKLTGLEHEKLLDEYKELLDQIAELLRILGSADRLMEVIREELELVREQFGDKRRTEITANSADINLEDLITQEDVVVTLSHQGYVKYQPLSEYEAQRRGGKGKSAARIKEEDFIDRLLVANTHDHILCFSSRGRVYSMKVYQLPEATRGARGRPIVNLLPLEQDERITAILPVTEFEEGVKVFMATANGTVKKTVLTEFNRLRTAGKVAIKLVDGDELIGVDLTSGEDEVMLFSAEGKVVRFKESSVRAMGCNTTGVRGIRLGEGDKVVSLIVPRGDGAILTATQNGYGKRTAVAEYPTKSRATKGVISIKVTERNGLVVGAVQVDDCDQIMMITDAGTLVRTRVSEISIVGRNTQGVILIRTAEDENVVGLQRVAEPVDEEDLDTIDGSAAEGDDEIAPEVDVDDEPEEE

For the compound `C[C@H]1CCc2c(N3CCC(O)(COc4ccc(N5C[C@H](CO)OC5=O)cc4F)CC3)c(F)cc3c(=O)c(C(=O)O)cn1c23` [OBP-4], the figures for the IC50 in assay [1] and in assay [2] were 1 to 5 µM and 10 to 15 µM, respectively. The MIC in assay [3] is 0.0625 to 1 µg/mL (≈ 0.104 to 1.67 µM).
The like results for `CC1Sc2c(C(=O)O)c(=O)c3cc(F)c(N4CCC(O)(COc5ccc(N6C[C@H](CO)OC6=O)cc5F)CC4)cc3n21` (stereo partly drawn) [OBP-5] were, in that order, 20 µM, over 40 µM and 0.0625 to 1 µg/mL (≈ 0.104 to 1.66 µM).
